Experimental data reported in ChEMBL document CHEMBL1146005, “Estrogen receptor beta-subtype selective tetrahydrofluorenones: use of a fused pyrazole as a phenol bioisostere” (Bioorg Med Chem Lett, 2006).

Columns and labels:
[1] = Clearance in Sprague-Dawley rat at 1 mg/kg, iv and 2 mg/kg, po; format: ADME, organism-based; conditions: in vivo
Estrogen receptor [2] = target: T1, Estrogen receptor (Homo sapiens, UniProt P03372)
T1 sequence (P03372 whole entry): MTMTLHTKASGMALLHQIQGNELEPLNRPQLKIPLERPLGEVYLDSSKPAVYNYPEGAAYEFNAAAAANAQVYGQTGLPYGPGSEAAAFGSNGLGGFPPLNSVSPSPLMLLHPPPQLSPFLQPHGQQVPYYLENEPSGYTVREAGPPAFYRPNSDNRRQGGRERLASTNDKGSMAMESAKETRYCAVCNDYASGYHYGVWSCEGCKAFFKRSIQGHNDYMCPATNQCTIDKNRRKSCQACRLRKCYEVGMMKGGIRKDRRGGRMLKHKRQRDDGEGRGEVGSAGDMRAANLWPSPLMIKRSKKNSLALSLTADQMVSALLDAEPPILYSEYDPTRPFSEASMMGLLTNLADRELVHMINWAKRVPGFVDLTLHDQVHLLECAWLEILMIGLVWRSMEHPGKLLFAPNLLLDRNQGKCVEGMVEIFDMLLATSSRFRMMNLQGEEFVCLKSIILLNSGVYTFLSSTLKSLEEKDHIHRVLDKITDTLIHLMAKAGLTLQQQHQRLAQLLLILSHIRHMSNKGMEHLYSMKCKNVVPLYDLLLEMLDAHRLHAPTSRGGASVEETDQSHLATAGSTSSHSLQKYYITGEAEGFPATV
Description: Agonist activity at human ERalpha transfected in HEK293 cells assessed as transactivation of alkaline phosphatase reporter gene

Estrogen receptor beta [3] = target: T2, Estrogen receptor beta (Homo sapiens, UniProt Q92731)
Description: Binding affinity to human ERbeta

[4] = AUC in Sprague-Dawley rat at 1 mg/kg, iv; format: ADME, organism-based; parameters: dose 1 mg/kg, route intravenous; conditions: plasma
[5] = Oral bioavailability in Sprague-Dawley rat at 1 mg/kg, iv and 2 mg/kg, po; format: ADME, organism-based; conditions: in vivo
[6] = Half life in Sprague-Dawley rat at 1 mg/kg, iv and 2 mg/kg, po; format: ADME, organism-based; conditions: in vivo
Estrogen receptor [7] = target: T1, Estrogen receptor; remark: listed apart in the source
Description: Binding affinity to human ERalpha

Estrogen receptor beta [8] = target: T2, Estrogen receptor beta; remark: listed apart in the source
Description: Agonist activity at human ERbeta transfected in HEK293 cells assessed as transactivation of alkaline phosphatase reporter gene

T2 sequence (Q92731 whole entry): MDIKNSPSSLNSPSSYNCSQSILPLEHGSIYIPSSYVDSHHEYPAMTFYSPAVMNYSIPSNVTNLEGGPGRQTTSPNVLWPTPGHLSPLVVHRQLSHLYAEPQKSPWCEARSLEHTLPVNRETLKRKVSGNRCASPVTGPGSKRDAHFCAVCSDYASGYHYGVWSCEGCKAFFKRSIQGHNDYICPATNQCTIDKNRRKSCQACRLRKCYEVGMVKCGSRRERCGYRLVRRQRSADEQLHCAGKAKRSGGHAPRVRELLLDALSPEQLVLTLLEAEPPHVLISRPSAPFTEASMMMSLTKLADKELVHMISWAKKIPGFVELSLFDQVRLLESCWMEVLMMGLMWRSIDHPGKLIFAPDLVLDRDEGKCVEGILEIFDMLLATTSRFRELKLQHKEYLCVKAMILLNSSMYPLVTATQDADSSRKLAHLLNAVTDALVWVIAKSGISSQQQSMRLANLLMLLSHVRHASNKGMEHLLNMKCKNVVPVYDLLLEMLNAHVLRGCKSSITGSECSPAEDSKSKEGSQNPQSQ

Row | Compound | clearance [1] [mL/min/kg] | EC50 (Estrogen receptor [2]) [nM] | IC50 (Estrogen receptor beta [3]) [nM] | AUC [4] [µM·h] | bioavailability [5] [%] | half-life [6] [h] | IC50 (Estrogen receptor [7]) [nM] | EC50 (Estrogen receptor beta [8]) [nM]
1 | CC[C@@]12CCC(=O)C(C(F)(F)F)=C1c1ccc3[nH]ncc3c1C2 | 36 | 50 | 2.8 | 1.5 | 74 | 0.7 | 360 | 0.6
2 | CC[C@@]12CCC(=O)C(c3ccccc3)=C1c1ccc3[nH]ncc3c1C2 |  | 72 | 1.4 |  |  |  | 46 | 0.8
3 | O=C1CC[C@@]2(CC3CC3)Cc3c(ccc4[nH]ncc34)C2=C1Br |  |  | 4 |  |  |  | 230 | 
4 | O=C1CC[C@@]2(CCC3CC3)Cc3c(ccc4[nH]ncc34)C2=C1Br | 55 | 61 | 1.6 | 0.8 | 51 | 1.2 | 229 | 0.9
5 | CC[C@@]12CCC(=O)C(Cl)=C1c1ccc3[nH]nc(F)c3c1C2 |  |  | 1.1 |  |  |  | 82 | 
6 | CCCC[C@@]12CCC(=O)C(CC)=C1c1ccc3[nH]nc(F)c3c1C2 |  |  | 0.3 |  |  |  | 23 | 
7 | CC[C@@]12CCC(=O)C(C(F)(F)F)=C1c1ccc3[nH]ncc3c1C2=O | 15 | 10.4 | 1.5 | 3.2 | 62 | 1.2 | 58 | 0.4
8 | CC[C@@]12CCC(=O)C(Cl)=C1c1ccc3[nH]ncc3c1C2=O |  |  | 4.1 |  |  |  | 139 | 
9 | C[C@@]12CCC(=O)C(C(F)(F)F)=C1c1ccc3[nH]ncc3c1C2 |  |  | 8 |  |  |  | 1480 | 
10 | CCCC[C@@]12CCC(=O)C(C(F)(F)F)=C1c1ccc3[nH]nc(F)c3c1C2 |  |  | 1 |  |  |  | 49.2 | 
11 | CC[C@@]12CCC(=O)C(C(F)(F)F)=C1c1ccc3[nH]nc(F)c3c1C2 | 42 | 8.3 | 0.3 | 1.2 | 27 | 1.9 | 50.9 | 0.2
12 | CCCC[C@@]12CCC(=O)C(C(F)(F)F)=C1c1ccc3[nH]ncc3c1C2=O | 69 |  | 0.9 | 0.7 | 21 | 1.8 | 40 | 
13 | CCC12CCC(=O)C(C(=O)OC)=C1c1ccc3[nH]ncc3c1C2 (racemic) |  | 1170 | 207 |  |  |  | > 10000 | 210
14 | CCCCC12CCC(=O)C(Br)=C1c1ccc(O)cc1C2 (racemic) | 102 |  |  | 0.5 | 0 | 1.5 |  | 
15 | CCC12CCC(=O)C(C)=C1c1ccc3[nH]nc(Cl)c3c1C2 (racemic) |  |  | 42.5 |  |  |  | 2420 | 
16 | CCC12CCC(=O)C(Br)=C1c1ccc3[nH]nc(F)c3c1C2 (racemic) |  | 33.1 | 1.6 |  |  |  | 197 | 0.8
17 | CC1=C2c3ccc4[nH]ncc4c3CC2(C)CCC1=O (racemic) |  |  | 69 |  |  |  | 4410 | 
18 | CCC12CCC(=O)C=C1c1ccc3[nH]ncc3c1C2 (racemic) |  | > 1000 | 618 |  |  |  | > 10000 | 76
19 | CCCCC12CCC(=O)C(C3CC3)=C1c1ccc3[nH]ncc3c1C2 (racemic) |  |  | 7 |  |  |  | 422 | 
20 | CCC12CCC(=O)C(C)=C1c1ccc3[nH]nc(Br)c3c1C2 (racemic) |  |  | 103 |  |  |  | 5880 | 
21 | CCC12CCC(=O)C(C)=C1c1ccc3[nH]ncc3c1C2=O (racemic) |  |  | 31.8 |  |  |  | 624 | 
22 | CCC12CCC(=O)C(Br)=C1c1ccc3[nH]ncc3c1C2=O (racemic) |  | 49 | 8 |  |  |  | 352 | 1.5

Other lines, results leading:

Row | clearance [1] [mL/min/kg] | EC50 (Estrogen receptor [2]) [nM] | IC50 (Estrogen receptor beta [3]) [nM] | AUC [4] [µM·h] | bioavailability [5] [%] | half-life [6] [h] | IC50 (Estrogen receptor [7]) [nM] | EC50 (Estrogen receptor beta [8]) [nM] | Compound
23 | 58 | > 1000 | 7.7 | 1 | 55 | 0.9 | 470 | 5.8 | CC[C@@]12CCC(=O)C(C3CC3)=C1c1ccc3[nH]ncc3c1C2
24 | 44 | 104 | 7.2 | 1.5 | 51 | 1.1 | 1360 | 2.1 | CC[C@@]12CCC(=O)C(C)=C1c1ccc3[nH]ncc3c1C2
25 |  |  | 1.1 |  |  |  | 93 |  | CCCC[C@@]12CCC(=O)C(CC)=C1c1ccc3[nH]ncc3c1C2
26 | 74 | 65 | 2.2 | 0.7 | 64 | 0.7 | 249 | 0.7 | CC[C@@]12CCC(=O)C(Br)=C1c1ccc3[nH]ncc3c1C2
27 | 64 |  | 0.8 | 0.9 | 25 | 0.9 | 176 |  | CCCC[C@@]12CCC(=O)C(C(F)(F)F)=C1c1ccc3[nH]ncc3c1C2
28 |  |  | 5.2 |  |  |  | 2080 |  | CCCC[C@@]12CCC(=O)C(C(=O)OC)=C1c1ccc3[nH]ncc3c1C2
29 | 31 | 1100 | 4460 | 2 | 44 | 0.8 | > 10000 | 935 | CC[C@]12CCC(=O)C(C)=C1c1ccc3[nH]ncc3c1C2
30 | 72 | 152 | 7.7 | 0.9 | 47 | 0.5 | 470 | 1.5 | CC[C@@]12CCC(=O)C(Cl)=C1c1ccc3[nH]ncc3c1C2
31 |  |  | 12 |  |  |  | 1050 |  | CCCCC12CCC(=O)C(C)=C1c1ccc3[nH]ncc3c1C2 (racemic)
32 |  | 59 | 4 |  |  |  | 223 | 1.7 | CCC1=C2c3ccc4[nH]ncc4c3CC2(CC)CCC1=O (racemic)
33 |  |  | 4.9 |  |  |  | 1410 |  | CCCCC12CCC(=O)C(Br)=C1c1ccc3[nH]ncc3c1C2 (racemic)
34 |  |  | 12.6 |  |  |  | 976 |  | CCCC12CCC(=O)C(C)=C1c1ccc3[nH]ncc3c1C2 (racemic)
35 |  |  | 26 |  |  |  | 1990 |  | CC12CCC(=O)C(Br)=C1c1ccc3[nH]ncc3c1C2 (racemic)
36 |  |  | 5.4 |  |  |  | 663 |  | CCCC12CCC(=O)C(Br)=C1c1ccc3[nH]ncc3c1C2 (racemic)
37 |  |  | 283 |  |  |  | > 10000 |  | CCCCC12CCC(=O)C=C1c1ccc3[nH]ncc3c1C2 (racemic)
